Measured values published in patent US5955421A, “Peptides containing D-2-alkyl-Tryptophan” (priority 1990, dated 1999).
Like-named read-outs stand apart in the source and are kept apart here. Square brackets hold non-standard residues; d marks the D form. Peptide text beside a SMILES is read from it. dTrp(2-Me) = Cc1[nH]c2ccccc2c1C[C@@H](N)C(=O)O

Tests used:
[1] = tested on: Growth Hormone release; experiment: GH release in 10-day old rats, s.c. 160 μg/kg; assay type: in vivo; conditions: 160 μg/kg s.c.
Experimental: The peptides of Examples 4 and 5 were tested as Growth Hormone releasers in rats. GH released in a series of seven 10-day old rats, injected subcutaneously with a standard dose of 160 μg/kg and sacrificed 15 minutes after the injection.

[2] = tested on: pituitary cell monolayers; experiment: GH secretion of pituitary cell monolayers incubated with peptides; assay type: cell-based, rats; conditions: 2 hours incubation
Experimental: (§1) Male Sprague Dawley rats (Charles River, Calco, Italy) of 2-3 months of age were used. Rats were housed at 22 +2° C., with lighting cycle of 14 h light: 10 h dark (lights on from 06.00 to 20.00 h), at least 10 days before starting the experiments. A standard dry diet and water were available ad libitum.
Pituitary tissue used for cell dissociation included only the anterior lobe. Briefly, pituitary glands were collected in sterile F-10 medium and after cutting into small fragments incubated twice (30 minutes each) at 37° C. in F-10 medium containing 6% fetal calf serum and collagenase (2.5 mg/ml) (Boehringer, Mannheim GmbH, Germany). Fragments were then washed in Dulbecco's PBS, Ca^2 + and Mg^2 + free medium and mechanically dissociated. Single cell suspension was planted onto 24-well (2×10^5 cells/well) culture plates. The cells were incubated in F-10 medium supplemented with 10% horse serum, 4% fetal calf serum and gentamycin (25 μg/ml), in a humidified atmosphere of 5% CO2 and 95% air at 37° C.
After 3 days, the medium was removed and the cells washed twice with serum free F-10, then incubated with 1 ml of F-10 containing 0.1% BSA only, or with added various concentrations of synthetic peptides.
After incubation for 2 h at 37° C., media were collected and stored frozen at -20° C. until assayed for measurement of GH content.
(§2) Medium and plasma GH was measured by radioimmunoassay using materials supplied by the NIADDK Bethesda, Md. Values were expressed in term of NIASSK-rat-GH-RP-2 standard (potency 2 IU/ml), as ng/ml of medium or plasma.
(§3) The minimum detectable value of rat was 1.0 ng/ml; intra-assay variability was 6%. To avoid inter-assay variation, samples from each experiment were assayed simultaneously.

[3] = tested on: GH release; experiment: Plasma GH after s.c. administration in male rats anesthetized with ketamine and xilazine; assay type: in vivo
Experimental: as §1
Between 09.00-10.00 h rats were anesthetized with ketamine (58 mg/kg, Inoketam, VIRBAC, Milano) and xilazine (12 mg/kg, Rompun, Bayer, Milano). Thirty minutes later, a blood sample ([…]) was withdrawn from the exposed jugular vein, peptides were injected intravenously or subcutaneously, and further blood samples were collected 10, 20 and 30 minutes later.
as §2, §3

[4] = tested on: rat; experiment: Acute cardiovascular toxicity in the rat, single i.v. dose, mortality; assay type: in vivo; conditions: for Dead rats/Total No of rats per group: observed up to 4 hours
Experimental: These two peptides were also tested for acute cardiovascular toxicity in the rat.
Dosages were calculated on the basis of the declared peptide content in each product, as specified below:
A single dose of HEXARELIN or GHRP-6 was administered to rats in different calendar dates in such a way that each group/dose should be treated in two subsequent days.
For each compound, appropriate amounts of solutions in 0.9% NaCl for injection were prepared just before treatment at the suitable concentrations. The solutions were sterilized by filtration (Millipore filter, pore size 0.22 μm). Owing to the type of the study (acute study) in which formulates were administered just after preparation, stability checks were not performed. Concentration checks were also not performed. The volume of solution injected was maintained constant at 1 ml/Kg.
The intravenous injections were done as a single dose in one vein of the tail with an appropriately gauged sterile, disposable, plastic syringe. The injection rate was about 0.1 ml/sec.
Periodical observations were made up to 4 hours after treatment. Abnormality and mortality were recorded. Body weight was recorded once during pre-trial and on the administration day to calculate the volumes to be injected.

[5] = tested on: growth hormone secretion; experiment: Growth hormone secretion in young healthy male volunteers; assay type: in vivo, human; conditions: young (20-30 years old) healthy male volunteers, various dosages, FIGS. 18-20
Experimental: The effects of HEXARELIN on growth hormone secretion in young (20-30 years old) healthy male volunteers were measured after the administration of various dosages.

[6] = tested on: Human heart tissue; experiment: Inhibition of 125I-Tyr-Ala-HEXARELIN binding to human heart tissue membranes
Experimental: (§4) Tissue membranes (0.1 mg protein) obtained from the heart and hypothalamus of two different adult subjects were incubated in triplicate with a subsaturating concentration (34 pM, about 48,000 cpm, for heart tissue and 42 pM, about 60,000 cpm for hypothalamus tissue) of ^125 I-Tyr-Ala-HEXARELIN for 40 min at 0° C. in the absence and in the presence of increasing concentrations of the indicated unlabelled peptides. The value in parentheses represents the % of inhibition of ^125 I-Tyr-Ala-HEXARELIN specifically bound.
(§5) The specific binding of ^125 I-Tyr-Ala-HEXARELIN/0.1 mg membrane protein is expressed as a percent of total radioactivity added.

[7] = tested on: Human hypothalamus tissue; experiment: Inhibition of 125I-Tyr-Ala-HEXARELIN binding to human hypothalamus tissue membranes
Experimental: as §4, §5

[8] = tested on: GH release; experiment: Released GH in ten day-rats, s.c. (Table 9); assay type: in vivo; conditions: 300 μg/kg s.c., 15 minutes, GH control 10 to 31 ng/ml depending on experiment
Experimental: In vivo activity of these compounds was determined in ten day-rats, which were subcutaneously injected (s.c.) with a dose of 300 μg/kg or with different doses in dose-response studies, according to the procedure as described in Deghenghi et. al, Life Sciences 54, 1321 (1994). The released GH was measured 15 minutes following compound administration.

[9] = Hydrophobicity comparison (FIG. 12); assay type: physicochemical
Source text: FIG. 12 is a graphical comparison of the hydrophobicity of GHRP-6 and HEXARELIN;

[10] = tested on: plasma testosterone; conditions: dog, in vivo, sc
Experimental: The peptide of Example 3 was formulated in a polymeric PLGA implant in the form of rods which were about 1 cm long and 1 mm in diameter. These implants contained a loading of either 20 or 25% of the peptide (an amount of 7 or 10 mg), and were inserted subcutaneously into in male Beagle dogs which weighed between 10 and 12 kg.

[11] = mean of two subjects, read-out: mean IC50 value
[12] = subject 1, read-out: IC50 value
[13] = subject 2, read-out: IC50 value

Cc1[nH]c2ccccc2c1C[C@@H](NC(=O)[C@@H](N)Cc1cnc[nH]1)C(=O)N[C@@H](C)C(=O)N[C@@H](Cc1c[nH]c2ccccc12)C(=O)N[C@H](Cc1ccccc1)C(=O)N[C@@H](CCCCN)C(N)=O [Example 4, His-D-2-methyl-Trp-Ala-Trp-D-Phe-Lys-NH2] (H-H[dTrp(2-Me)]AW[dF]K-NH2)
activity as Growth Hormone releaser [1]: very active | GH-releasing activity ([2]; 10^-6 M): 558.0 ± 19.1 ng/well | GH-releasing activity ([2]; 10^-7 M): 589.1 ± 17.9 ng/well | GH-releasing activity ([2]; 10^-8 M): 557.8 ± 15.9 ng/well | plasma GH ([3]; s.c. 600 μg/kg, 30 min): 115.3 ± 19.1 ng/mL | GH-releasing effectiveness compared ([3]; s.c. 150, 300 and 600 μg/kg, 10, 20 and 30 minutes): more effective than GHRP-6 at all the considered times | Dead rats/Total No of rats per group ([4]; 5.0 mg/kg i.v. single dose): 0/6 | Dead rats/Total No of rats per group ([4]; 7.5 mg/kg i.v. single dose): 1/6 | Dead rats/Total No of rats per group ([4]; 10 mg/kg i.v. single dose): 2/6 | toxicity compared ([4]; i.v. single dose, rat): less toxic than GHRP-6 | effect on growth hormone secretion [5]: effective in vivo | inhibition of 125I-Tyr-Ala-HEXARELIN specifically bound ([6]; 0.1 nM peptide, subject 1): 4% | specific binding of 125I-Tyr-Ala-HEXARELIN ([6]; 0.1 nM peptide, subject 1): 20.1% of total radioactivity | inhibition of 125I-Tyr-Ala-HEXARELIN specifically bound ([6]; 0.1 nM peptide, subject 2): 5% | specific binding of 125I-Tyr-Ala-HEXARELIN ([6]; 0.1 nM peptide, subject 2): 22.8% of total radioactivity | inhibition of 125I-Tyr-Ala-HEXARELIN specifically bound ([6]; 1 nM peptide, subject 1): 20% | specific binding of 125I-Tyr-Ala-HEXARELIN ([6]; 1 nM peptide, subject 1): 16.9% of total radioactivity | inhibition of 125I-Tyr-Ala-HEXARELIN specifically bound ([6]; 1 nM peptide, subject 2): 28% | specific binding of 125I-Tyr-Ala-HEXARELIN ([6]; 1 nM peptide, subject 2): 17.3% of total radioactivity | inhibition of 125I-Tyr-Ala-HEXARELIN specifically bound ([6]; 10 nM peptide, subject 1): 51% | specific binding of 125I-Tyr-Ala-HEXARELIN ([6]; 10 nM peptide, subject 1): 10.4% of total radioactivity | inhibition of 125I-Tyr-Ala-HEXARELIN specifically bound ([6]; 10 nM peptide, subject 2): 56% | specific binding of 125I-Tyr-Ala-HEXARELIN ([6]; 10 nM peptide, subject 2): 10.5% of total radioactivity | inhibition of 125I-Tyr-Ala-HEXARELIN specifically bound ([6]; 100 nM peptide, subject 1): 92% | specific binding of 125I-Tyr-Ala-HEXARELIN ([6]; 100 nM peptide, subject 1): 1.7% of total radioactivity | inhibition of 125I-Tyr-Ala-HEXARELIN specifically bound ([6]; 100 nM peptide, subject 2): 90% | specific binding of 125I-Tyr-Ala-HEXARELIN ([6]; 100 nM peptide, subject 2): 2.4% of total radioactivity | inhibition of 125I-Tyr-Ala-HEXARELIN specifically bound ([6]; 1000 nM peptide, subject 1): 100% | specific binding of 125I-Tyr-Ala-HEXARELIN ([6]; 1000 nM peptide, subject 1): 0% of total radioactivity | inhibition of 125I-Tyr-Ala-HEXARELIN specifically bound ([6]; 1000 nM peptide, subject 2): 100% | specific binding of 125I-Tyr-Ala-HEXARELIN ([6]; 1000 nM peptide, subject 2): 0% of total radioactivity | IC50 [6, 11]: 9.5 nM | IC50 [6, 12]: 10.6 nM | IC50 [6, 13]: 8.3 nM | inhibition of 125I-Tyr-Ala-HEXARELIN specifically bound ([7]; 0.1 nM peptide, subject 1): 3% | specific binding of 125I-Tyr-Ala-HEXARELIN ([7]; 0.1 nM peptide, subject 1): 10.7% of total radioactivity | inhibition of 125I-Tyr-Ala-HEXARELIN specifically bound ([7]; 0.1 nM peptide, subject 2): 4% | specific binding of 125I-Tyr-Ala-HEXARELIN ([7]; 0.1 nM peptide, subject 2): 9.1% of total radioactivity | inhibition of 125I-Tyr-Ala-HEXARELIN specifically bound ([7]; 1 nM peptide, subject 1): 16% | specific binding of 125I-Tyr-Ala-HEXARELIN ([7]; 1 nM peptide, subject 1): 9.6% of total radioactivity | inhibition of 125I-Tyr-Ala-HEXARELIN specifically bound ([7]; 1 nM peptide, subject 2): 19% | specific binding of 125I-Tyr-Ala-HEXARELIN ([7]; 1 nM peptide, subject 2): 7.7% of total radioactivity | inhibition of 125I-Tyr-Ala-HEXARELIN specifically bound ([7]; 10 nM peptide, subject 1): 51% | specific binding of 125I-Tyr-Ala-HEXARELIN ([7]; 10 nM peptide, subject 1): 5.2% of total radioactivity | inhibition of 125I-Tyr-Ala-HEXARELIN specifically bound ([7]; 10 nM peptide, subject 2): 67% | specific binding of 125I-Tyr-Ala-HEXARELIN ([7]; 10 nM peptide, subject 2): 3.1% of total radioactivity | inhibition of 125I-Tyr-Ala-HEXARELIN specifically bound ([7]; 100 nM peptide, subject 1): 89% | specific binding of 125I-Tyr-Ala-HEXARELIN ([7]; 100 nM peptide, subject 1): 1.2% of total radioactivity | inhibition of 125I-Tyr-Ala-HEXARELIN specifically bound ([7]; 100 nM peptide, subject 2): 93% | specific binding of 125I-Tyr-Ala-HEXARELIN ([7]; 100 nM peptide, subject 2): 0.7% of total radioactivity | inhibition of 125I-Tyr-Ala-HEXARELIN specifically bound ([7]; 1000 nM peptide, subject 1): 100% | specific binding of 125I-Tyr-Ala-HEXARELIN ([7]; 1000 nM peptide, subject 1): 0% of total radioactivity | inhibition of 125I-Tyr-Ala-HEXARELIN specifically bound ([7]; 1000 nM peptide, subject 2): 100% | specific binding of 125I-Tyr-Ala-HEXARELIN ([7]; 1000 nM peptide, subject 2): 0% of total radioactivity | IC50 [7, 11]: 7 nM | IC50 [7, 12]: 8.9 nM | IC50 [7, 13]: 5 nM | GH released [8]: 104.2 ± 13.1 ng/mL | hydrophobicity [9]: greater hydrophobicity than GHRP-6

CCNC(=O)[C@@H]1CCCN1C(=O)[C@H](CCCNC(=N)N)NC(=O)[C@H](CC(C)C)NC(=O)[C@@H](Cc1c(C)[nH]c2ccccc12)NC(=O)[C@H](Cc1ccc(O)cc1)NC(=O)[C@H](CO)NC(=O)[C@H](Cc1c[nH]c2ccccc12)NC(=O)[C@H](Cc1c[nH]cn1)NC(=O)[C@@H]1CCC(=O)N1 [Example 3, Pyro-Glu-His-Trp-Ser-Tyr-D-2-alkyl-Trp-Leu-Arg-Pro-NHCH2 CH3]
clinical side effects [10]: No clinical side effects were observed
